# Test results: ChEMBL document CHEMBL1201862, “PubChem BioAssay data set” (2004)
#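 Method: 48-hour compound exposure of cells in 96-well plates, five concentrations, linear interpolation of endpoints. GI50 marks 50% less growth.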 Calls of active or inactive are those of the source. Rule as the data show it: active = GI50 up to about 1.1 µM and inactive = higher.
# Tests used:
# Experiment in all cases: NCI tumour cell line growth inhibition, 48 h
# UACC-257 = system: UACC-257
# NCI/ADR-RES = system: NCI/ADR-RES
# RXF 393 = system: RXF 393
# MDA-MB-435 = system: MDA-MB-435
# SK-MEL-5 = system: SK-MEL-5
# NCI-H460 = system: NCI-H460
# SF-268 = system: SF-268
# SNB-19 = system: SNB-19
# SF-539 = system: SF-539
# HOP-92 = system: HOP-92
# HL-60 = system: HL-60
# MDA-MB-231 = system: MDA-MB-231
# K562 = system: K562
# SK-OV-3 = system: SK-OV-3
# HT-29 = system: HT-29
# IGROV-1 = system: IGROV-1
# KM12 = system: KM12
# Malme-3M = system: Malme-3M
# SW-620 = system: SW-620
# SK-MEL-2 = system: SK-MEL-2
# UO-31 = system: UO-31
# U-251 = system: U-251
# Hs-578T = system: Hs-578T
# OVCAR-4 = system: OVCAR-4
# T47D = system: T47D
# HCC 2998 = system: HCC 2998
# SNB-75 = system: SNB-75
# COLO 205 = system: COLO 205
# NCI-H23 = system: NCI-H23
# OVCAR-8 = system: OVCAR-8
# PC-3 = system: PC-3
# CCRF-CEM = system: CCRF-CEM
# SF-295 = system: SF-295
# NCI-H522 = system: NCI-H522
# HCT-116 = system: HCT-116
# ACHN = system: ACHN
# UACC-62 = system: UACC-62
# SR = system: SR
# HCT-15 = system: HCT-15
# MDA-N = system: MDA-N
# DU-145 = system: DU-145
# CAKI-1 = system: CAKI-1
# EKVX = system: EKVX
# HOP-62 = system: HOP-62
# SN12C = system: SN12C
# MOLT-4 = system: MOLT-4
# LOX IMVI = system: LOX IMVI
# A549 = system: A549
# SK-MEL-28 = system: SK-MEL-28
# TK-10 = system: TK-10
# 786-0 = system: 786-0
# RPMI-8226 = system: RPMI-8226
# OVCAR-5 = system: OVCAR-5
# A498 = system: A498
# NCI-H226 = system: NCI-H226
# M14 = system: M14
# MCF7 = system: MCF7
# OVCAR-3 = system: OVCAR-3
smiles,measurement,setting,value
N/N=C(\N)SCc1ccc(N=C=S)cc1,GI50,UACC-257,> 100 µM (inactive)
same,GI50,NCI/ADR-RES,> 100 µM (inactive)
same,GI50,RXF 393,> 100 µM (inactive)
same,GI50,MDA-MB-435,> 100 µM (inactive)
same,GI50,SK-MEL-5,> 100 µM (inactive)
same,GI50,NCI-H460,> 100 µM (inactive)
same,GI50,SF-268,> 100 µM (inactive)
same,GI50,SNB-19,> 100 µM (inactive)
same,GI50,SF-539,> 100 µM (inactive)
same,GI50,HOP-92,> 100 µM (inactive)
same,GI50,HL-60,> 100 µM (inactive)
same,GI50,MDA-MB-231,> 100 µM (inactive)
same,GI50,K562,> 100 µM (inactive)
same,GI50,SK-OV-3,> 100 µM (inactive)
same,GI50,HT-29,> 100 µM (inactive)
same,GI50,IGROV-1,> 100 µM (inactive)
same,GI50,KM12,> 100 µM (inactive)
same,GI50,Malme-3M,> 100 µM (inactive)
same,GI50,SW-620,> 100 µM (inactive)
same,GI50,SK-MEL-2,> 100 µM (inactive)
same,GI50,UO-31,> 100 µM (inactive)
same,GI50,U-251,> 100 µM (inactive)
same,GI50,Hs-578T,> 100 µM (inactive)
same,GI50,OVCAR-4,> 100 µM (inactive)
same,GI50,T47D,> 100 µM (inactive)
same,GI50,HCC 2998,> 100 µM (inactive)
same,GI50,SNB-75,> 100 µM (inactive)
same,GI50,COLO 205,> 100 µM (inactive)
same,GI50,NCI-H23,> 100 µM (inactive)
same,GI50,OVCAR-8,> 100 µM (inactive)
same,GI50,PC-3,> 100 µM (inactive)
same,GI50,CCRF-CEM,> 100 µM (inactive)
same,GI50,SF-295,> 100 µM (inactive)
same,GI50,NCI-H522,5.9 µM (inactive)
same,GI50,HCT-116,> 100 µM (inactive)
same,GI50,ACHN,> 100 µM (inactive)
same,GI50,UACC-62,> 100 µM (inactive)
same,GI50,SR,> 100 µM (inactive)
same,GI50,HCT-15,> 100 µM
same,GI50,MDA-N,> 100 µM (inactive)
same,GI50,DU-145,> 100 µM (inactive)
same,GI50,CAKI-1,> 100 µM (inactive)
same,GI50,EKVX,> 100 µM (inactive)
same,GI50,HOP-62,> 100 µM (inactive)
same,GI50,SN12C,> 100 µM (inactive)
same,GI50,MOLT-4,> 100 µM (inactive)
same,GI50,LOX IMVI,> 100 µM (inactive)
same,GI50,A549,> 100 µM (inactive)
same,GI50,SK-MEL-28,> 100 µM (inactive)
same,GI50,TK-10,> 100 µM (inactive)
same,GI50,786-0,> 100 µM (inactive)
same,GI50,RPMI-8226,> 100 µM (inactive)
same,GI50,OVCAR-5,> 100 µM (inactive)
same,GI50,A498,> 100 µM (inactive)
CCOC(=O)C1(Cc2ccccc2)Cc2ccccc2C1=O (stereo not drawn),GI50,UACC-257,> 10 µM (inactive)
same,GI50,NCI/ADR-RES,21.9 µM (inactive)
same,GI50,MDA-MB-435,20 µM (inactive)
same,GI50,SK-MEL-5,15.1 µM (inactive)
same,GI50,NCI-H226,19.7 µM (inactive)
same,GI50,NCI-H460,27.2 µM (inactive)
same,GI50,SF-268,29.2 µM (inactive)
same,GI50,SF-539,35.1 µM (inactive)
same,GI50,HOP-92,16.5 µM (inactive)
same,GI50,HL-60,19.1 µM (inactive)
same,GI50,MDA-MB-231,25.9 µM (inactive)
same,GI50,K562,24 µM (inactive)
same,GI50,SK-OV-3,30.8 µM (inactive)
same,GI50,HT-29,23.6 µM (inactive)
same,GI50,IGROV-1,35.2 µM (inactive)
same,GI50,KM12,26.6 µM (inactive)
same,GI50,Malme-3M,18.7 µM (inactive)
same,GI50,SW-620,33.7 µM (inactive)
same,GI50,SK-MEL-2,14.8 µM (inactive)
same,GI50,UO-31,14.6 µM (inactive)
same,GI50,U-251,34.6 µM (inactive)
same,GI50,M14,16.6 µM (inactive)
same,GI50,Hs-578T,35.1 µM (inactive)
same,GI50,OVCAR-4,18.7 µM (inactive)
same,GI50,T47D,28.6 µM (inactive)
same,GI50,HCC 2998,34.4 µM (inactive)
same,GI50,SNB-75,25.4 µM (inactive)
same,GI50,COLO 205,19.6 µM (inactive)
same,GI50,MCF7,33.8 µM (inactive)
same,GI50,NCI-H23,17.3 µM (inactive)
same,GI50,OVCAR-8,28.8 µM (inactive)
same,GI50,PC-3,17.6 µM (inactive)
same,GI50,CCRF-CEM,27.8 µM (inactive)
same,GI50,SF-295,37.1 µM (inactive)
same,GI50,OVCAR-3,30.8 µM (inactive)
same,GI50,HCT-116,27.4 µM (inactive)
same,GI50,ACHN,28.1 µM (inactive)
same,GI50,UACC-62,20.8 µM (inactive)
same,GI50,SR,22 µM (inactive)
same,GI50,HCT-15,30.9 µM
same,GI50,MDA-N,16.4 µM (inactive)
same,GI50,DU-145,45.2 µM (inactive)
same,GI50,EKVX,20.7 µM (inactive)
same,GI50,HOP-62,35.2 µM (inactive)
same,GI50,SN12C,27.7 µM (inactive)
same,GI50,MOLT-4,19.6 µM (inactive)
same,GI50,LOX IMVI,24.1 µM (inactive)
same,GI50,A549,23.7 µM (inactive)
same,GI50,SK-MEL-28,24.8 µM (inactive)
same,GI50,TK-10,36.8 µM (inactive)
same,GI50,786-0,32.5 µM (inactive)
same,GI50,RPMI-8226,20.4 µM (inactive)
same,GI50,OVCAR-5,30.4 µM (inactive)
O=[N+]([O-])/C(Cl)=C(\Sc1ccccc1)C(Cl)=C(Cl)Cl,GI50,UACC-257,0.404 µM (active)
same,GI50,NCI/ADR-RES,0.216 µM (active)
same,GI50,RXF 393,0.975 µM (active)
same,GI50,MDA-MB-435,0.22 µM (active)
same,GI50,SK-MEL-5,0.54 µM (active)
same,GI50,NCI-H226,2.23 µM (inactive)
same,GI50,NCI-H460,1.54 µM (inactive)
same,GI50,SF-268,1.4 µM (inactive)
same,GI50,SNB-19,2.22 µM (inactive)
same,GI50,SF-539,1.56 µM (inactive)
same,GI50,HOP-92,1.91 µM (inactive)
same,GI50,HL-60,0.273 µM (active)
same,GI50,MDA-MB-231,0.264 µM (active)
same,GI50,K562,0.294 µM (active)
same,GI50,SK-OV-3,4.21 µM (inactive)
same,GI50,HT-29,0.355 µM (active)
same,GI50,IGROV-1,1.28 µM (inactive)
same,GI50,KM12,1.79 µM (inactive)
same,GI50,Malme-3M,0.647 µM (active)
same,GI50,SK-MEL-2,1.77 µM (inactive)
same,GI50,UO-31,0.284 µM (active)
same,GI50,U-251,1.29 µM (inactive)
same,GI50,M14,0.188 µM (active)
same,GI50,Hs-578T,0.562 µM (active)
same,GI50,OVCAR-4,1.49 µM (inactive)
same,GI50,T47D,1.28 µM (inactive)
same,GI50,HCC 2998,1.93 µM (inactive)
same,GI50,COLO 205,0.282 µM (active)
same,GI50,MCF7,0.159 µM (active)
same,GI50,NCI-H23,0.473 µM (active)
same,GI50,OVCAR-8,0.191 µM (active)
same,GI50,PC-3,2.01 µM (inactive)
same,GI50,CCRF-CEM,0.296 µM (active)
same,GI50,SF-295,3.43 µM (inactive)
same,GI50,OVCAR-3,1.52 µM (inactive)
same,GI50,NCI-H522,0.26 µM (active)
same,GI50,HCT-116,0.147 µM (active)
same,GI50,ACHN,1.66 µM (inactive)
same,GI50,UACC-62,0.647 µM (active)
same,GI50,SR,0.292 µM (active)
same,GI50,HCT-15,0.42 µM
same,GI50,MDA-N,0.288 µM (active)
same,GI50,DU-145,1.71 µM (inactive)
same,GI50,CAKI-1,1.83 µM (inactive)
same,GI50,EKVX,2.04 µM (inactive)
same,GI50,HOP-62,2.06 µM (inactive)
same,GI50,SN12C,0.373 µM (active)
same,GI50,MOLT-4,0.348 µM (active)
same,GI50,LOX IMVI,0.207 µM (active)
same,GI50,A549,0.229 µM (active)
same,GI50,SK-MEL-28,1.41 µM (inactive)
same,GI50,TK-10,1.8 µM (inactive)
same,GI50,786-0,0.308 µM (active)
same,GI50,RPMI-8226,0.242 µM (active)
same,GI50,OVCAR-5,1.86 µM (inactive)
same,GI50,A498,1.72 µM (inactive)
